Measured values published in patent US8415469B2, “Compounds and methods for kinase modulation, and indications therefor” (Plexxikon Inc., priority 2005, dated 2013).

What was measured:
Assay type in all cases: biochemical
FGFR1 = biological target: T1, FGFR1 (Homo sapiens, UniProt P11362, C488A/C584S); test: AlphaScreen kinase assay, FGFR1; settings: read-out: IC50, activity toward kinase FGFR
T1 construct: P1351.pET N6 BI-PTP FGFR A458-E765-X C488A, C584S; made in house; host or cells: E. coli (PTP1B co-expressed)

Fms = biological target: T2, Fms (Homo sapiens, UniProt P07333); test: AlphaScreen kinase assay, Fms; settings: read-out: IC50, activity toward kinase Fms
T2 construct: purchased Upstate Biotechnology

B-Raf V600E = biological target: T3, B-Raf V600E (Homo sapiens, UniProt P15056, V600E); test: AlphaScreen kinase assay, B-Raf V600E; settings: read-out: IC50, activity toward kinase B-Raf V600E
T3 construct: P4254. pFastBacBD-CDC37 BRAF D437-K722-X, V600E; His6 with pFastBac HT leader (TEV site) (N); made in house; host or cells: Sf9 (baculovirus; chaperone CDC37 co-expressed)

Kit = biological target: T4, Kit (Homo sapiens, UniProt P10721); test: AlphaScreen kinase assay, Kit; settings: read-out: IC50, activity toward kinase Kit
T4 construct: P1332.N6 BI PTP KIT M552-K948-X COD; His6 (N); made in house; host or cells: E. coli (PTP1B co-expressed)

B-Raf = biological target: T5, B-Raf (Homo sapiens, UniProt P15056); test: AlphaScreen kinase assay, B-Raf; settings: read-out: IC50, activity toward kinase B-Raf
T5 construct: purchased Upstate Biotechnology
T5 sequence (P15056 whole entry): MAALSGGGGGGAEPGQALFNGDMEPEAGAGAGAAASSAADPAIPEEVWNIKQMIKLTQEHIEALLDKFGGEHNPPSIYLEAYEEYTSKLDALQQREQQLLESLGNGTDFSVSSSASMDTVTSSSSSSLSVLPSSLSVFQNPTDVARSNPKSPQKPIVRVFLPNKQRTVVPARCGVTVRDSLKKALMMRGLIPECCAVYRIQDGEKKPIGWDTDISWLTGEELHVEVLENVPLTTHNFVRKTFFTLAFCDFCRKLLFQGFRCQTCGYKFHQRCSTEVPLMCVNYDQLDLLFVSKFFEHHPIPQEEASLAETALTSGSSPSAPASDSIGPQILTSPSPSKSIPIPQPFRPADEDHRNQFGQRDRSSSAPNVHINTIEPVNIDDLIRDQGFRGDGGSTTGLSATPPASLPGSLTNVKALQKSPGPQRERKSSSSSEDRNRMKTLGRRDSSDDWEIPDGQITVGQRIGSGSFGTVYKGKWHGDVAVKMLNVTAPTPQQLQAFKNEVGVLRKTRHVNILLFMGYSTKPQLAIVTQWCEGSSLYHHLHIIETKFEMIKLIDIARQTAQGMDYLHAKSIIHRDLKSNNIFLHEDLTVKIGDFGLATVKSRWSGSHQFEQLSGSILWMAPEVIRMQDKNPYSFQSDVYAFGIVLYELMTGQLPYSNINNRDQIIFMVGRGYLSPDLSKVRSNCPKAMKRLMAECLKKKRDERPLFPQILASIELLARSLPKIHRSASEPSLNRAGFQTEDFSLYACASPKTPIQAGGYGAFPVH

T1 sequence (P11362 458-765 C488A/C584S): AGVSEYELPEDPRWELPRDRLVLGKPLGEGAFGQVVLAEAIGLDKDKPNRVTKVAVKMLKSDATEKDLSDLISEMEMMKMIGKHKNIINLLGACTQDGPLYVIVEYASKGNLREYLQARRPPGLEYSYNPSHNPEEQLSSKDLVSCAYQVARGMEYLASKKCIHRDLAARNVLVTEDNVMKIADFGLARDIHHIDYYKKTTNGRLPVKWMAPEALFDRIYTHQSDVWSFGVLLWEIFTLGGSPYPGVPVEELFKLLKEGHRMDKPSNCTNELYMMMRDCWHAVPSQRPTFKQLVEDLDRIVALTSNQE
T4 sequence (P10721 with tags, fused parts or gaps): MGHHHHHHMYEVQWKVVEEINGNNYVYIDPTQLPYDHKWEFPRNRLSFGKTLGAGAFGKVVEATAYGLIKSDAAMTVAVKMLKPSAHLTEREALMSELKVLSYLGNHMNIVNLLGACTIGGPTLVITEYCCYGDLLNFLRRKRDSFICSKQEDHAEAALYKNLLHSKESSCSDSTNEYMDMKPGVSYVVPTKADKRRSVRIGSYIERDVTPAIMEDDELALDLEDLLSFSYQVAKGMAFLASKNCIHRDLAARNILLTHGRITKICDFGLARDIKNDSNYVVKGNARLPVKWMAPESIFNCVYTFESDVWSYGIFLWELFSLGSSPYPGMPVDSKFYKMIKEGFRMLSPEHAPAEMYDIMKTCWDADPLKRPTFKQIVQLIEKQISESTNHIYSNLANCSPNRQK
T3 sequence (P15056 with tags, fused parts or gaps V600E): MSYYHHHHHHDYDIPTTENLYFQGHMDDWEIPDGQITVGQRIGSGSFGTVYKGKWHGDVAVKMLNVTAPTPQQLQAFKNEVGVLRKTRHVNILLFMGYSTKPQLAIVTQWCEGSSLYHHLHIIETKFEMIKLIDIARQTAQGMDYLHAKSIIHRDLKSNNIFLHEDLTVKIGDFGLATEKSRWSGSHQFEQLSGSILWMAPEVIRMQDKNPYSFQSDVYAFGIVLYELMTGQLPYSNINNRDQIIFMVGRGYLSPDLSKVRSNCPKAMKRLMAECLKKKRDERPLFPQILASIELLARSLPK
T2 sequence (P07333 20-972): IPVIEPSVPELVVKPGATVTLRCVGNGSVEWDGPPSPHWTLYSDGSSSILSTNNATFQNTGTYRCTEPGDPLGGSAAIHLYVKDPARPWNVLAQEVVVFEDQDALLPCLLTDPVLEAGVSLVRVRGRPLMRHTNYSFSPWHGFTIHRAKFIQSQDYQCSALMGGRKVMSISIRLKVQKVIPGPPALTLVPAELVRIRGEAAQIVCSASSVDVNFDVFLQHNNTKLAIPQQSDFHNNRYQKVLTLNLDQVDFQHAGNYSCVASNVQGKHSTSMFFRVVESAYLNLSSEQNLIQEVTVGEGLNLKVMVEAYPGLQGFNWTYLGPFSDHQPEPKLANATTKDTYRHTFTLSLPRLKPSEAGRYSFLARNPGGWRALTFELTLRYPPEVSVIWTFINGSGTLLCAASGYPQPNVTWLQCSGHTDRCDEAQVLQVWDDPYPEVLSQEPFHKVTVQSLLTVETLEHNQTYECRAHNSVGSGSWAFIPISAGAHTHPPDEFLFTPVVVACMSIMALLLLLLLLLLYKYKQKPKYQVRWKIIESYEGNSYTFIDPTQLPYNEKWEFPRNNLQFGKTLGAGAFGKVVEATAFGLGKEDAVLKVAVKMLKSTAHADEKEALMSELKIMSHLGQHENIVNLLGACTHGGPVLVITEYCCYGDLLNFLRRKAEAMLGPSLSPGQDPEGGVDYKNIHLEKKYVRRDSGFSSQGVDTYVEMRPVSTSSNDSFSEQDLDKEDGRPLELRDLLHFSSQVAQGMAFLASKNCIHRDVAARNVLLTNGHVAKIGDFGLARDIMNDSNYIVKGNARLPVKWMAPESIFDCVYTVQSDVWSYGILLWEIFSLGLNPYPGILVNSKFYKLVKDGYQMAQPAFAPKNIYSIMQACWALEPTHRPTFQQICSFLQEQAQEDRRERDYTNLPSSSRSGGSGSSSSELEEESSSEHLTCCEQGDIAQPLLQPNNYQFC

Row | Structure (SMILES) | IC50 (FGFR1) | IC50 (Fms) | IC50 (B-Raf V600E) | IC50 (Kit) | IC50 (B-Raf)
1 | CCCS(=O)(=O)Nc1ccc(F)c(Cc2c[nH]c3ncc(N4CCC(C)CC4)cc23)c1F [Compound P-0984, Propane-1-sulfonic acid {2,4-difluoro-3-[5-(4-methyl-piperidin-1-yl)-1H-pyrrolo[2,3-b]pyridin-3-ylmethyl]-phenyl}-amide] |  |  | ≤ 10 µM |  | ≤ 10 µM
2 | c1ccc(CCc2c[nH]c3ncccc23)cc1 [Compound P-0200] |  |  | ≤ 10 µM |  | ≤ 10 µM
3 | OC(c1c(F)ccc(N(Cc2ccccc2)Cc2ccccc2)c1F)c1c[nH]c2ncc(-c3cccnc3)cc12 (stereo not shown) [Compound P-1080] |  |  |  |  | ≤ 10 µM
4 | O=C(Nc1cccc(C(=O)c2c[nH]c3ncc(-c4ccc(F)cc4)cc23)c1)Nc1cc(C(F)(F)F)ccc1Cl [Compound P-1752, 1-(2-Chloro-5-trifluoromethyl-phenyl)-3-{3-[5-(4-fluoro-phenyl)-1H-pyrrolo[2,3-b]pyridine-3-carbonyl]-phenyl}-urea] |  |  | ≤ 10 µM |  | ≤ 10 µM
5 | COC(=O)c1cccc(Nc2ccnc3[nH]ccc23)c1 [Compound P-0932] |  |  |  |  | ≤ 10 µM
6 | COc1cccc(Cc2c[nH]c3ncc(-c4cccc(Cl)c4)cc23)c1F [Compound P-1326, 5-(3-Chloro-phenyl)-3-(2-fluoro-3-methoxy-benzyl)-1H-pyrrolo[2,3-b]pyridine] | ≤ 10 µM | ≤ 10 µM |  |  | 
7 | O=C(NCc1ccc(F)cc1)Nc1ccc(F)c(Cc2c[nH]c3ncc(Cl)cc23)c1F [Compound P-1654, 1-[3-(5-Chloro-1H-pyrrolo[2,3-b]pyridin-3-ylmethyl)-2,4-difluoro-phenyl]-3-(4-fluoro-benzyl)-urea] |  | ≤ 10 µM |  |  | 
8 | O=C(c1cccc(C(F)(F)F)c1)c1c[nH]c2ncc(-c3cccnc3)cc12 [Compound P-1410, (5-Pyridin-3-yl-1H-pyrrolo[2,3-b]pyridin-3-yl)-(3-trifluoromethyl-phenyl)-methanone] |  | ≤ 10 µM |  | ≤ 10 µM | 
9 | COc1cccc(Cc2c[nH]c3ncc(-c4cccc(OC(F)(F)F)c4)cc23)c1F [Compound P-1328, 3-(2-Fluoro-3-methoxy-benzyl)-5-(3-trifluoromethoxy-phenyl)-1H-pyrrolo[2,3-b]pyridine] | ≤ 10 µM | ≤ 10 µM |  |  | 
10 | COc1cccc(Cc2c[nH]c3ncc(-c4cccc(C(F)(F)F)c4)cc23)c1F [Compound P-1325, 3-(2-Fluoro-3-methoxy-benzyl)-5-(3-trifluoromethyl-phenyl)-1H-pyrrolo[2,3-b]pyridine] | ≤ 10 µM | ≤ 10 µM |  |  | 
11 | OC(c1cccc(OC(F)F)c1)c1c[nH]c2ncc(Br)cc12 (stereo not shown) [Compound P-1511] |  | ≤ 10 µM |  |  | 
12 | O=C(NCC1CC1)Nc1ccc(F)c(Cc2c[nH]c3ncc(Cl)cc23)c1F [Compound P-1652, 1-[3-(5-Chloro-1H-pyrrolo[2,3-b]pyridin-3-ylmethyl)-2,4-difluoro-phenyl]-3-cyclopropylmethyl-urea] |  | ≤ 10 µM |  |  | 
13 | O=C(c1cccc(C(F)(F)F)c1)c1c[nH]c2ncc(-c3ccccc3)cc12 [Compound P-1405, (5-Phenyl-1H-pyrrolo[2,3-b]pyridin-3-yl)-(3-trifluoromethyl-phenyl)-methanone] |  | ≤ 10 µM |  |  | 
14 | COc1cccc(C(=O)c2c[nH]c3ncc(-c4cccc(OC(F)(F)F)c4)cc23)c1F [Compound P-1344, (2-Fluoro-3-methoxy-phenyl)-[5-(3-trifluoromethoxy-phenyl)-1H-pyrrolo[2,3-b]pyridin-3-yl]-methanone] | ≤ 10 µM | ≤ 10 µM |  |  | 
15 | COC(c1c(F)ccc(NC(=O)Nc2ccc(F)cc2)c1F)c1c[nH]c2ncc(Cl)cc12 (stereo not shown) [Compound P-1653] |  | ≤ 10 µM |  |  | 
16 | O=C(Nc1ccc(F)cc1)Nc1ccc(F)c(Cc2c[nH]c3ncc(Cl)cc23)c1F [Compound P-1657, 1-[3-(5-Chloro-1H-pyrrolo[2,3-b]pyridin-3-ylmethyl)-2,4-difluoro-phenyl]-3-(4-fluoro-phenyl)-urea] |  | ≤ 10 µM |  |  | 
17 | CCCS(=O)(=O)Nc1ccc(F)c(C(=O)c2c[nH]c3ncc(Br)cc23)c1 [Compound P-1431] |  |  |  |  | ≤ 10 µM
18 | CSc1nccc(-c2ccc(S(=O)(=O)NCc3c[nH]c4ncccc34)s2)n1 [Compound P-0854] | ≤ 10 µM | ≤ 10 µM |  | ≤ 10 µM | 
19 | O=C(c1ccc2c(c1)OC(F)(F)O2)c1c[nH]c2ncc(-c3cccnc3)cc12 [Compound P-1558, (2,2-Difluoro-benzo[1,3]dioxol-5-yl)-(5-pyridin-3-yl-1H-pyrrolo[2,3-b]pyridin-3-yl)-methanone] |  | ≤ 10 µM | ≤ 10 µM |  | 

More lines, now with the values ahead:

Row | IC50 (FGFR1) | IC50 (Fms) | IC50 (B-Raf V600E) | IC50 (Kit) | IC50 (B-Raf) | Structure (SMILES)
20 | ≤ 10 µM | ≤ 10 µM | ≤ 10 µM |  |  | Clc1ccc(CNc2ccc(Cc3c[nH]c4ncc(Br)cc34)cn2)cc1 [Compound P-0420]
21 |  | ≤ 10 µM |  | ≤ 10 µM |  | COc1ccc(Nc2c[nH]c3ncccc23)cc1 [Compound P-1488, (4-Methoxy-phenyl)-(1H-pyrrolo[2,3-b]pyridin-3-yl)-amine]
22 |  | ≤ 10 µM |  | ≤ 10 µM |  | COc1cc(Nc2c[nH]c3ncccc23)cc(OC)c1 [Compound P-1503, (3,5-Dimethoxy-phenyl)-(1H-pyrrolo[2,3-b]pyridin-3-yl)-amine]
23 | ≤ 10 µM | ≤ 10 µM |  |  |  | COc1cc(C(OC)c2c[nH]c3ncccc23)ccc1OCc1ccc(Cl)cc1 (stereo not shown) [Compound P-1340]
24 |  | ≤ 10 µM |  | ≤ 10 µM |  | Clc1cccc(Cl)c1Cc1c[nH]c2ncccc12 [Compound P-1483, 3-(2,6-Dichloro-benzyl)-1H-pyrrolo[2,3-b]pyridine]
25 | ≤ 10 µM | ≤ 10 µM |  | ≤ 10 µM |  | COc1ccc(Cc2c[nH]c3ncc(-c4ccsc4)cc23)cc1OC [Compound P-0563]
26 | ≤ 10 µM | ≤ 10 µM | ≤ 10 µM | ≤ 10 µM |  | O=C(c1cccc(OC(F)F)c1)c1c[nH]c2ncc(-c3ccccc3)cc12 [Compound P-1409, (3-Difluoromethoxy-phenyl)-(5-phenyl-1H-pyrrolo[2,3-b]pyridin-3-yl)-methanone]
27 | ≤ 10 µM | ≤ 10 µM |  |  |  | Fc1ccccc1Cc1c[nH]c2ncc(Br)cc12 [Compound P-1342]
28 | ≤ 10 µM | ≤ 10 µM |  |  |  | COc1cccc(Cc2c[nH]c3ncc(-c4cccc(F)c4)cc23)c1F [Compound P-1327, 3-(2-Fluoro-3-methoxy-benzyl)-5-(3-fluoro-phenyl)-1H-pyrrolo[2,3-b]pyridine]
29 | ≤ 10 µM | ≤ 10 µM |  | ≤ 10 µM |  | OC(c1c(F)ccc(OC(F)F)c1F)c1c[nH]c2ncc(Br)cc12 (stereo not shown) [Compound P-1525]
30 |  | ≤ 10 µM |  | ≤ 10 µM |  | c1ccc(Oc2ccccc2Nc2c[nH]c3ncccc23)cc1 [Compound P-1501, (2-Phenoxy-phenyl)-(1H-pyrrolo[2,3-b]pyridin-3-yl)-amine]
31 | ≤ 10 µM | ≤ 10 µM |  |  |  | COc1cccc(C(=O)c2c[nH]c3ncc(-c4cccc(Cl)c4)cc23)c1F [Compound P-1332, [5-(3-Chloro-phenyl)-1H-pyrrolo[2,3-b]pyridin-3-yl]-(2-fluoro-3-methoxy-phenyl)-methanone]
32 | ≤ 10 µM | ≤ 10 µM | ≤ 10 µM | ≤ 10 µM |  | CCCC(=O)Nc1ccc(F)c(Cc2c[nH]c3ncc(OC)cc23)c1F [Compound P-1369]
33 | ≤ 10 µM | ≤ 10 µM |  |  |  | COc1cccc(C(=O)c2c[nH]c3ncc(-c4cc(F)cc(F)c4)cc23)c1F [Compound P-1334, [5-(3,5-Difluoro-phenyl)-1H-pyrrolo[2,3-b]pyridin-3-yl]-(2-fluoro-3-methoxy-phenyl)-methanone]
34 | ≤ 10 µM | ≤ 10 µM |  | ≤ 10 µM |  | CS(=O)(=O)Nc1cccc(-c2cnc3[nH]cc(C(=O)c4cc(OC(F)F)cc(OC(F)F)c4)c3c2)c1 [Compound P-1522, N-{3-[3-(3,5-Bis-difluoromethoxy-benzoyl)-1H-pyrrolo[2,3-b]pyridin-5-yl]-phenyl}-methanesulfonamide]
35 | ≤ 10 µM | ≤ 10 µM |  | ≤ 10 µM |  | Clc1ccc(Cc2c[nH]c3ncccc23)cc1 [Compound P-0233]
36 |  | ≤ 10 µM |  | ≤ 10 µM |  | FC(F)(F)Oc1cccc(Nc2c[nH]c3ncccc23)c1 [Compound P-1493, (1H-Pyrrolo[2,3-b]pyridin-3-yl)-(3-trifluoromethoxy-phenyl)-amine]
37 | ≤ 10 µM | ≤ 10 µM |  |  |  | COc1cccc(C(=O)c2c[nH]c3ncc(-c4ccc(C#N)cc4)cc23)c1F [Compound P-1335, 4-[3-(2-Fluoro-3-methoxy-benzoyl)-1H-pyrrolo[2,3-b]pyridin-5-yl]-benzonitrile]
38 | ≤ 10 µM | ≤ 10 µM | ≤ 10 µM |  |  | Cc1nc(NCc2ccc(Cl)cc2)ccc1Cc1c[nH]c2ncccc12 [Compound P-0927]
39 | ≤ 10 µM | ≤ 10 µM |  |  |  | COc1cccc(C(=O)c2c[nH]c3ncc(-c4ccc(Cl)cc4)cc23)c1F [Compound P-1333, [5-(4-Chloro-phenyl)-1H-pyrrolo[2,3-b]pyridin-3-yl]-(2-fluoro-3-methoxy-phenyl)-methanone]
40 |  | ≤ 10 µM |  | ≤ 10 µM |  | CS(=O)(=O)Nc1cccc(Nc2c[nH]c3ncccc23)c1 [Compound P-1498, N-[3-(1H-Pyrrolo[2,3-b]pyridin-3-ylamino)-phenyl]-methanesulfonamide]
